Usually melting point stands for the temperature, or range, at which the solid turns liquid. Usually IC50 stands for the point on the concentration scale where inhibition reaches its midpoint.

This note sets out measurements from patent US7115750B1, “Melanin concentrating hormone antagonist” (Takeda Pharmaceutical Company Limited, priority 1999, dated 2006).

System in the first series: not given
Assay: not given
Conditions: not given
With `CN(C)CC1CCc2cc(NC(=O)c3ccc(-c4ccccc4)cc3)ccc2C1.Cl` (centres unmarked) [Reference Example 25, N-[2-(N,N-Dimethylamino)methyl-6-tetralinyl]-4-biphenylylcarboxamide hydrochloride], the melting point was greater than 250 °C.

`CN(C)CC1=Cc2ccc(NC(=O)c3ccc(-c4ccccc4Cl)cc3)cc2CC1` [Example 50, 2′-Chloro-N-[6-[(dimethylamino)methyl]-7,8-dihydro-2-naphthalenyl][1,1′-biphenyl]-4-carboxamide]: the melting point is 145 to 147 °C.

As to `CN(C)CCNC(=O)Cc1ccc(NC(=O)c2cc3ccccc3s2)cc1` [Example 185, N-[4-[2-[[2-(Dimethylamino)ethyl]amino]-2-oxoethyl]phenyl]-1-benzothiophen-2-carboxamide], the melting point was 186 to 187 °C (dec.).

On to `O=C(Nc1ccc2c(c1)CCC(CN1CCCC1)=C2)c1ccc(-c2ccccc2)cc1` [Example 94, N-[6-(1-Pyrrolidinylmethyl)-7,8-dihydro-2-naphthalenyl][1,1′-biphenyl]-4-carboxamide], for which the melting point lay in the range of 176 to 177 °C.

`CN(C)CCNC(=O)Cc1ccc(NC(=O)c2ccc(NC(=O)c3ccccc3)cc2)cc1` [Example 192, 4-(Benzoylamino)-N-[4-[2-[[2-(dimethylamino)ethyl]amino]-2-oxoethyl]phenyl]benzamide] gave a melting point of 220 to 221 °C.

`COc1ccc(-c2ccc(C(=O)Nc3ccc4c(c3)CCC(CN3CCCC3)=C4)cc2)cc1` [Example 148, 4′-Methoxy-N-[6-(1-pyrrolidinylmethyl)-7,8-dihydro-2-naphthalenyl][1,1′-biphenyl]-4-carboxamide] gave a melting point of 187 to 188 °C.

Regarding `CN(C)CC1CCCc2cc(NC(=O)c3ccc(-c4ccc(Cl)cc4)cc3)ccc2C1` (centres unmarked) [Example 46], the melting point fell in the range of 173 to 175 °C.

`O=C(Nc1ccc2c(c1)CCC(CN1CCCC1)=C2)c1ccc(-c2ccc(Cl)cc2)nc1` [Example 162, 6-(4-Chlorophenyl)-N-[6-(1-pyrrolidinylmethyl)-7,8-dihydro-2-naphthalenyl]nicotinamide] had a melting point of 252 to 253 °C.

As for `CN(C)CC1CCc2cc(NC(=O)c3ccc(NC(=O)Nc4ccccc4)cc3)ccc2C1` (centres unmarked) [Example 8, (4-Anilinocarbonyl)amino-N-[2-(N,N-dimethylamino)methyl-6-tetralinyl]benzamide], the melting point is 216 to 217 °C (dec.).

In turn, `CC1=C(CN2CCCC2)CCc2cc(NC(=O)c3ccc(-c4ccc(F)cc4)cc3)ccc21` [Example 229, 4′-Fluoro-N-[5-methyl-6-(1-pyrrolidinylmethyl)-7,8-dihydro-2-naphthalenyl][1,1′-biphenyl]-4-carboxamide] yielded a melting point of 199 to 201 °C.

`CN(C)CC1COc2cc(NC(=O)c3ccc(-c4ccc(F)cc4F)cc3)ccc2O1` (centres unmarked) [Example 107, 2′,4′-Difluoro-N-[2-[(dimethylamino)methyl]-2,3-dihydro-1,4-benzodioxin-6-yl][1,1′-biphenyl]-4-carboxamide]: the melting point lay in the range of 209 to 210 °C.

For `COc1ccc(-c2ccc(C(=O)Nc3ccc4c(c3)CCC(CN3CCCC3)=C4C)cn2)cc1` [Example 116, 6-(4-Methoxyphenyl)-N-[5-methyl-6-(1-pyrrolidinylmethyl)-7,8-dihydro-2-naphthalenyl]nicotinamide], the melting point is 165 to 167 °C.

On to `O=C(NCCN1CCCCC1)c1ccc(NC(=O)c2ccc(-c3ccccc3)cc2)cc1` [compound 22, N-[4-[[2-(Piperidinoethyl)amino]carbonyl]phenyl] 4-biphenylylcarboxamide], for which the melting point was 247 to 252 °C (dec.).

Compound `CN(C)CCNC(=O)Cc1ccc(NC(=O)CCCc2nc(-c3cc4ccccc4o3)no2)cc1` [Example 182, 4-[3-(1-Benzofuran-2-yl)-1,2,4-oxadiazol-5-yl]-N-[4-[2-[[2-(dimethylamino)ethyl]amino]-2-oxoethyl]phenyl]butanamide] registered a melting point of 161 to 163 °C.

The compound `O=C(Nc1ccc2c(c1)CCC(CCN1CCCC1)=C2)c1ccc(-c2ccc(F)cc2)cc1` [Example 205, 4′-Fluoro-N-[6-[2-(1-pyrrolidinyl)ethyl]-7,8-dihydro-2-naphthalenyl][1,1′-biphenyl]-4-carboxamide] gave a melting point of 187 to 189 °C.

Consider `O=C(Nc1ccc2c(c1)OCC(CN1CCCC1)O2)c1ccc(-c2ccc(Cl)cc2)nc1` (centres unmarked) [Example 108, 6=(4-Chlorophenyl)-N-[2-(1-pyrrolidinylmethyl)-2,3-dihydro-1,4-benzodioxin-6-yl]nicotinamide], for which the melting point was 218 to 220 °C.

As for `Cc1cc(-c2ccncc2)c(C(=O)Nc2ccc(CC(=O)NCCN(C)C)cc2)[nH]1` [Example 197, N-[4-[2-[[2-(Dimethylamino)ethyl]amino]-2-oxoethyl]phenyl]-5-methyl-3-(4-pyridinyl)-1H-pyyrole-2-carboxamide], the melting point is 215 to 218 °C (dec.).

In turn, `O=C(Nc1ccc2c(c1)CCC(CN1CCCC1)C2)c1ccc(-c2ccc(Cl)cc2)cc1` (centres unmarked) [Example 98, 4′-Chloro-N-[6-(1-pyrrolidinylmethyl)-5,6,7,8-tetrahydro-2-naphthalenyl][1,1′-biphenyl]-4-carboxamide] displayed a melting point of 206 to 209 °C.

On to `CN(C)CC1=Cc2ccc(NC(=O)c3ccc(-c4ccc(F)cc4)cc3)cc2CC1` [Example 42, 4′-Fluoro-N-[6-[(N,N-dimethylamino)methyl]-7,8-dihydro-2-naphthalenyl][1,1′-biphenyl]-4-carboxamide], for which the melting point lay within 190 to 193 °C.

In turn, `CN(C)CC1CCc2cc(NC(=O)c3ccc(-c4ccc(NC(=O)C(F)(F)F)cc4)cc3)ccc2C1` (centres unmarked) [Example 31, N-[6-[(N,N-Dimethylamino)methyl]-5,6,7,8-tetrahydro-2-naphthalenyl]-4′-[(trifluoroacetyl)amino][1,1′-biphenyl]-4-carboxamide] came in with a melting point of 235 to 237 °C.

`COc1ccc(-c2ccc(C(=O)Nc3ccc4c(c3)CCC(CN3CCCC3)=C4C)cc2)cc1` [Example 200, 4′-Methoxy-N-[6-(1-pyrrolidinylmethyl)-5-methyl-7,8-dihydro-2-naphthalenyl][1,1′-biphenyl]-4-carboxamide] came in with a melting point of 179 to 180 °C.

The target of another series is SLC-1 expressing CHO cell membrane fractions (MCH receptor) (UniProt Q99705). Put plainly: Determination of antagonist activity using GTPgS binding assay. In kind it is biochemical, human and rat (not specified for the table). The note with it: [35S]-GTPγS binding stimulated by MCH, SLC-1 expressing CHO cell membrane 20 μg/ml, 1 hour; read-out: Inhibition Activity (IC50 value: nM). The procedure: Membrane fraction was prepared by the following method, using the human SLC-1 expressing CHO cell clone 57 obtained in Reference Example 1-10, and the rat SLC-1 expressing CHO cell clone 44 obtained in Reference Example 1-4.
The human and rat SLC-1 expressing CHO cells (1×10^8) were scraped in buffer saline phosphate (pH 7.4) to which 5 mM EDTA (ethylenediaminetetraacetic acid) had been added, and centrifuged. 10 ml of homogenized buffer (10 mM NaHCO3, 5 mM EDTA, pH 7.5) was added to the cell pellets, and they were homogenized using a Polytron homogenizer. […]
After this reaction mixture was allowed to react for 1 hour under stirring, it was filtered under vacuum using a glass filter (GF-C), then the filter was washed 3 times with 300 μl of washing solution (50 mM Tris-HCl buffer solution pH 7.5). […] of liquid scintillator was added to the glass filter, and residual radioactivity was determined using a liquid scintillation counter.
The IC50 value of the compound was calculated from the binding inhibition rate (%), based on the definition that the binding inhibition rate (%)=(radioactivity when compound and MCH were added−radioactivity when DMSO solution was added)/(radioactivity when MCH was added−radioactivity when DMSO solution was added)×100.
For `COc1ccc(-c2ccc(C(=O)Nc3ccc4c(c3)CCC(CN(C)C)C4)cc2)cc1` (centres unmarked) [Example 1, N-[2-(N,N-Dimethylamino)methyl-6-tetralinyl]-(4′-methoxybiphenyl-4-yl)carboxamide], the IC50 is 40 nM.

As for `CN(C)CC1CCc2cc(NC(=O)c3ccc(-c4ccccc4)cc3)ccc2C1.Cl` (centres unmarked) [Reference Example 25, N-[2-(N,N-Dimethylamino)methyl-6-tetralinyl]-4-biphenylylcarboxamide hydrochloride], the IC50 amounted to 90 nM.
